Assay results from patent publication US3974277A, “2-[2-(5-Nitro-2-furyl)vinyl]-4-(anilino)quinazolines as growth promotants and feed efficiency enhancing agents” (Diamond Shamrock Corporation, priority 1975, dated 1976).
Positions of bridges follow the written chain, without caps; N, C: chain ends. Non-standard residues stand in square brackets, D forms with d. Residues, ends and D or L forms follow the SMILES beside them. *: point of attachment. Ileψ(thiazoline)Cys = CC[C@H](C)[C@H](N)C1=N[C@H](C(=O)*)CS1; dOrn = NCCC[C@@H](N)C(=O)O

Experiments:
[1] = Chick growth promotion and feed efficiency at low levels, Example VIII (Table II); type: in vivo, broiler cross chicks
Text: Day old broiler cross chicks were weight equalized into groups of 8 chicks each and were placed in battery brooders. The 32 chick treatment groups (4 replicates) were fed one of the five rations described below for a 4 week period. Weekly measurements of body weights and feed consumption were made by replicate, and these measurements used to calculate weight gain and feed efficiency.
The basal ration was the basal ration used in Example VII above. The remaining five rations were obtained by mixing the indicated quantities by bacitracin (4 g/T), chlortetracycline (10 g/T), product of Example I (10 g/T), and product of Example III of U.S. Pat. No. 3,542,784 -- Burch (10 g/T) as growth promotants with the basal ration.

[2] = Chick growth promotion comparison, Example XI (Table V); type: in vivo, broiler cross chicks; settings: 25 g/T, 4 weeks
Text: The growth promotion tests described in Example X were repeated with the exception that five replicates of 8 chicks each were fed the formulations described in Table V for 4 weeks.

Streptococcus faecalis = assay: Bactericide test, agar growth inhibition; type: cell-based; settings: vs chlortetracycline
Text: (§1) Test formulations were examined for bactericidal and/or bacteriostatic activity against the test organisms shown in Tables A and B. These organisms were chosen as being representative of commercially important pathogens affecting animal agriculture. The antibiotic chlortetracycline was chosen as a positive control, since it has a broad spectrum of activity against a large number of organisms, and its activity can be used for comparative purposes.
(§2) Basic test formulations of the product of Examples I, II, III, and of chlortetracycline were prepared by dissolving 16 mg (0.016 g) in 2.0 ml of stock emulsifier solution (0.25% Triton X-155 in acetone by volume) and making each solution up to 50 ml with deionized water. The concentration of the test compound in the basic formuation was 320 ppm. Lower concentrations of the test compound were obtained by diluting the basic formulation with a 4% solution of the stock emulsifier in deionized water so that each dilution in the series differed only in test compound content.
Nutrient-tryptic soy agar (NTA) consisting of 2.0% Difco Bactoagar 0.8% nutrient broth (Difco), and 0.5% tryptic soy broth (Difco) was prepared and sterilized by autoclaving. A 2 ml aliquot of each test formulation was added to 8 ml of molten NTA. This mixture was then plated in a sterile polystyrene petri dish (100 × 15 mm). After the agar was set, suspensions of each of the test organisms were simultaneously streaked into the surface of the agar. The inoculated plates were incubated for 48 hr at 28°C. The inhibition of growth of each organism was rated by visual comparison with the organism developing on non-treated agar. Growth inhibition reported as per cent control was rated in three categories as follows: 0% control, growth equivalent to that on non-treated agar; 50% control, sparse development and separated colonies; 100% control, no visible growth or development of colonies. […]

[3] = test system: Bordetella bronchiseptica; assay: Bactericide test, agar growth inhibition; type: cell-based; settings: vs chlortetracycline
Text: as §1, §2
(§3) Nutrient-tryptic soy agar (NTA) consisting of 2.0% Difco Bactoagar 0.8% nutrient broth (Difco), and 0.5% tryptic soy broth (Difco) was prepared and sterilized by autoclaving. A 2 ml aliquot of each test formulation was added to 8 ml of molten NTA. This mixture was then plated in a sterile polystyrene petri dish (100 × 15 mm). After the agar was set, suspensions of each of the test organisms were simultaneously streaked into the surface of the agar. The inoculated plates were incubated for 48 hr at 28°C. The inhibition of growth of each organism was rated by visual comparison with the organism developing on non-treated agar. Growth inhibition reported as per cent control was rated in three categories as follows: 0% control, growth equivalent to that on non-treated agar; 50% control, sparse development and separated colonies; 100% control, no visible growth or development of colonies.

[4] = test system: Erysipelothrix rhusiopathiae; assay: Bactericide test, agar growth inhibition; type: cell-based; settings: vs chlortetracycline
Text: as §1, §2, §3

Streptococcus agalactiae = assay: Bactericide test, agar growth inhibition; type: cell-based; settings: vs chlortetracycline
Text: as §1, §2, §3

Streptococcus group E = assay: Bactericide test, agar growth inhibition; type: cell-based; settings: vs chlortetracycline
Text: as §1, §2, §3

Vibrio coli = assay: Bactericide test, agar growth inhibition; type: cell-based; settings: vs chlortetracycline
Text: as §1, §2, §3

[5] = Chick growth promotion titration dosage, Example IX (Table III); type: in vivo, broiler cross chicks
Text: The concentrations used in this test were 6.25, 12.5, 25, 50, 100, 200 and 400 g of the Product of Example I per ton of the Basal Ration described in Example VII above. The same number and size chick treatment groups were used in this test as in Example VIII above.

[6] = Chick growth promotion, Example XII first test (Table VI); type: in vivo, broiler cross chicks; settings: first set of tests, 25 g/T
Text: (§4) The growth promotion tests described in Example X were repeated with the additional testing the products of Examples II and III.

[7] = Chick growth promotion, Example XII repeat test (Table VII); type: in vivo, broiler cross chicks; settings: second set of tests, 25 g/T
Text: as §4

[8] = Swine growth rate and feed efficiency, Example XIII (Table VIII); type: in vivo, weanling pigs; settings: 25 g/T
Text: Thirty-six weanling pigs weighing approximately 30 pounds each in good physical condition and originating from a common source were used in these tests. The pigs were allocated into sex and weight equalized pens of six pigs each. A 1 week period was allowed for acclimatization before testing. Three replicates of six pigs were fed the basal ration described below, and three replicates were fed the same basal ration supplemented with 25 g/T of the product of Example I.
The basal ration was a 17% commercial corn-soya pelletized formulation which was free of antibiotic and drug components. Composition of the basal ration formulation was: […]
The rations were offered ad libitum from 6 bushel self-feeders with a continuous supply of fresh water. The same ration formulations were used throughout the 6 week feeding period. Individual pig weighing were made after 0, 2, 4 and 6 (termination) week periods. Feed consumption records were kept on a pen basis, with feed efficiency conversion being compiled at the end of the 2nd, 4th and 6th (termination) week of feeding. Complete morbidity and mortality records were kept.

[9] = Chick growth promotion comparison, Example X (Table IV); type: in vivo, broiler cross chicks; settings: 25 g/T
Text: This example compares growth promotion activity of the product of Example I with other growth promotants at a concentration of 25 g/T in the Basal Ration described in Example VII. The other growth promotants include the product described in Example I of U.S. Pat. No. 3,542,784 -- Burch and quinoxaline-1,4-dioxide. Day old broiler cross chicks were weight equalized into groups of 8 chicks each, and four replicates of 8 chicks each were fed the experimental rations over a 4 week period.

| Compound | effectiveness compared with chlortetracycline (Streptococcus faecalis) | effectiveness compared with chlortetracycline [3] | effectiveness compared with chlortetracycline [4] | effectiveness compared with chlortetracycline (Streptococcus agalactiae) | effectiveness compared with chlortetracycline (Streptococcus group E) | effectiveness compared with chlortetracycline (Vibrio coli) | effect on growth rate and feed efficiency (in words) [6] | effect on growth rate and feed efficiency (in words) [7] | also measured |
| --- | --- | --- | --- | --- | --- | --- | --- | --- | --- |
| CC[C@H](C)[C@H](N)C1=N[C@H](C(=O)N[C@@H](CC(C)C)C(=O)N[C@H](CCC(=O)O)C(=O)N[C@H](C(=O)N[C@H]2CCCCNC(=O)[C@H](CC(N)=O)NC(=O)[C@@H](CC(=O)O)NC(=O)[C@H](Cc3cnc[nH]3)NC(=O)[C@@H](Cc3ccccc3)NC(=O)[C@H]([C@@H](C)CC)NC(=O)[C@@H](CCCN)NC2=O)[C@@H](C)CC)CS1 [Bacitracin] ({Ileψ(thiazoline)Cys}-L[dE]IK[dOrn]I[dF]H[dD]N; lactam 4-C) | – | – | – | – | – | – | – | – | Improved Response Over Basal Ration, Feed Efficiency ([1]; 4 g/T, 4 weeks): +1.2%; Improved Response Over Basal Ration, Gain ([1]; 4 g/T, 4 weeks): -2.3%; Improved Response Over Basal Ration, Feed Efficiency [2]: +3.1%; Improved Response Over Basal Ration, Gain [2]: +1.2% |
| O=[N+]([O-])c1ccc(C=Cc2nc(Nc3ccc(O)cc3)c3ccccc3n2)o1 [Example I, 2-[2-(5-nitro-2-furyl)vinyl]-4-(p-hydroxyanilino)quinazoline] | considerably more effective | considerably more effective | considerably more effective | considerably more effective | considerably more effective | considerably more effective | moderate improvements in production parameters in both tests | moderate improvements in production parameters in both tests | growth promotion (in words) ([1]; low levels in feed): greater growth promotion than any of the other growth promotants; weight gain (in words) ([5]; 100 g/T): unexplained absence of weight gain improvement; activity (in words) ([5]; 400 g/T): sharp downturn; growth and feed efficiency (in words) [8]: very substantial growth improvement and enhanced feed efficiency |
| O=[N+]([O-])c1ccc(C=Cc2nc(Nc3cccc(O)c3)c3ccccc3n2)o1 [Example II, 2-[2-(5-nitro-2-furyl)vinyl]-4-(m-hydroxyanilino)quinazoline] | considerably more effective | considerably more effective | considerably more effective | considerably more effective | considerably more effective | considerably more effective | moderate improvements | – | – |
| O=[N+]([O-])c1ccc(-c2nc(Nc3ccc(O)cc3)c3ccccc3n2)o1 [Example III of U.S. 3,542,784 - Burch, 2-(5-nitro-2-furyl)-4-(p-hydroxyanilino)quinazoline, reference compound] | – | – | – | – | – | – | essentially no effect on growth rate or feed efficiency in either test | essentially no effect on growth rate or feed efficiency in either test | – |
| O=[N+]([O-])c1ccc(C=Cc2nc(Nc3ccccc3)c3ccccc3n2)o1 [Example IV, 2-[2-(5-nitro-2-furyl)vinyl]-4-anilinoquinazoline] | considerably more effective | considerably more effective | considerably more effective | considerably more effective | considerably more effective | considerably more effective | – | – | – |
| [O-][n+]1cc[n+]([O-])c2ccccc21 [Quinoxaline-1,4-dioxide, quinoxaline-1,4-dioxide] | – | – | – | – | – | – | – | – | response in growth rate and feed efficiency (in words) [9]: did not have any apparent effect |
